Experimental data: patent publication US20240189289A1, “INHIBITORS OF EPHB3 SIGNALING” (The Brigham and Women`s Hospital, Inc., priority 2021, published 2024)
Like-named read-outs stand apart in the source and are kept apart here.

Tests used:
Format in all cases: biochemical
EphA2 = EphA2 (Homo sapiens, UniProt P29317); assay: Eph receptor kinase activity assay (radiometric), EphA2; details: for remaining activity at 0.01 µM: 10 nM compound, read-out: EphA2 % act 10 nM; for remaining activity at 0.03 µM: 30 nM compound, read-out: EphA2 % act 30 nM; for remaining activity at 0.1 µM: 100 nM compound, read-out: EphA2 % act 100 nM; for remaining activity at 0.3 µM: 300 nM compound, read-out: EphA2 % act 300 nM
EphB4 = target: T1, EphB4 (Homo sapiens, UniProt P54760); assay: Eph receptor kinase activity assay (radiometric), EphB4; details: for remaining activity at 0.01 µM: 10 nM compound, read-out: EphB4 % act 10 nM; for remaining activity at 0.03 µM: 30 nM compound, read-out: EphB4 % act 30 nM; for remaining activity at 0.1 µM: 100 nM compound, read-out: EphB4 % act 100 nM; for remaining activity at 0.3 µM: 300 nM compound, read-out: EphB4 % act 300 nM
T1 sequence (P54760 16-987): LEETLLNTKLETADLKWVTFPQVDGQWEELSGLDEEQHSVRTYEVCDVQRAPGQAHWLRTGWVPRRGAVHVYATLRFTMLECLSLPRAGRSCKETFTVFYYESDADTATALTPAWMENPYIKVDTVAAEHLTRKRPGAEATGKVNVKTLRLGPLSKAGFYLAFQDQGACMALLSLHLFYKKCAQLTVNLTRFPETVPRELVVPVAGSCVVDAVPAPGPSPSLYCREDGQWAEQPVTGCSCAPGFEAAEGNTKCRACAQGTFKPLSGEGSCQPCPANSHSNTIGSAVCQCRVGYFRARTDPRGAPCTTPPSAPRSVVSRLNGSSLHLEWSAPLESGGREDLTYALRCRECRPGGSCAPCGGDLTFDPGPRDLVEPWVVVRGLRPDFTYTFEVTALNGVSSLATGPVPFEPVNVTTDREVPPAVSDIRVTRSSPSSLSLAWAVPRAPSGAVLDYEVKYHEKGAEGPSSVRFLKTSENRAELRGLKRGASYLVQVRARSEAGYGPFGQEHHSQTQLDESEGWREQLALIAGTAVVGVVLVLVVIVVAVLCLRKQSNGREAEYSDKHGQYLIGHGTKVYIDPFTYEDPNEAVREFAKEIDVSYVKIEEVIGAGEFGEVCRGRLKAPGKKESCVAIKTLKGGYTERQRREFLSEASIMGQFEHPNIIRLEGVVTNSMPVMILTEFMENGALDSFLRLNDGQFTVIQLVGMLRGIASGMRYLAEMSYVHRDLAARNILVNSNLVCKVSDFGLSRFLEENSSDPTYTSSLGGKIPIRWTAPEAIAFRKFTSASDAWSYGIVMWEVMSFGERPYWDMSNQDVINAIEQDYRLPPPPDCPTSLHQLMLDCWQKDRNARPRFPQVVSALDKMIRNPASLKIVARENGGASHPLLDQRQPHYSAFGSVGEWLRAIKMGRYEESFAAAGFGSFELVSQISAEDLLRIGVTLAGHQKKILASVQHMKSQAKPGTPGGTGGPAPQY

EphB3 = target: T2, EphB3 (Homo sapiens, UniProt P54753); assay: EphB3 radiometric kinase activity assay (33P ATP filter binding); details: for remaining activity at 0.01 µM: 10 nM compound, read-out: EphB3 % act 10 nM; for remaining activity at 0.03 µM: 30 nM compound, read-out: EphB3 % act 30 nM; for remaining activity at 0.1 µM: 100 nM compound, read-out: EphB3 % act 100 nM; for remaining activity at 0.3 µM: 300 nM compound, read-out: EphB3 % act 300 nM
T2 sequence (P54753 34-998): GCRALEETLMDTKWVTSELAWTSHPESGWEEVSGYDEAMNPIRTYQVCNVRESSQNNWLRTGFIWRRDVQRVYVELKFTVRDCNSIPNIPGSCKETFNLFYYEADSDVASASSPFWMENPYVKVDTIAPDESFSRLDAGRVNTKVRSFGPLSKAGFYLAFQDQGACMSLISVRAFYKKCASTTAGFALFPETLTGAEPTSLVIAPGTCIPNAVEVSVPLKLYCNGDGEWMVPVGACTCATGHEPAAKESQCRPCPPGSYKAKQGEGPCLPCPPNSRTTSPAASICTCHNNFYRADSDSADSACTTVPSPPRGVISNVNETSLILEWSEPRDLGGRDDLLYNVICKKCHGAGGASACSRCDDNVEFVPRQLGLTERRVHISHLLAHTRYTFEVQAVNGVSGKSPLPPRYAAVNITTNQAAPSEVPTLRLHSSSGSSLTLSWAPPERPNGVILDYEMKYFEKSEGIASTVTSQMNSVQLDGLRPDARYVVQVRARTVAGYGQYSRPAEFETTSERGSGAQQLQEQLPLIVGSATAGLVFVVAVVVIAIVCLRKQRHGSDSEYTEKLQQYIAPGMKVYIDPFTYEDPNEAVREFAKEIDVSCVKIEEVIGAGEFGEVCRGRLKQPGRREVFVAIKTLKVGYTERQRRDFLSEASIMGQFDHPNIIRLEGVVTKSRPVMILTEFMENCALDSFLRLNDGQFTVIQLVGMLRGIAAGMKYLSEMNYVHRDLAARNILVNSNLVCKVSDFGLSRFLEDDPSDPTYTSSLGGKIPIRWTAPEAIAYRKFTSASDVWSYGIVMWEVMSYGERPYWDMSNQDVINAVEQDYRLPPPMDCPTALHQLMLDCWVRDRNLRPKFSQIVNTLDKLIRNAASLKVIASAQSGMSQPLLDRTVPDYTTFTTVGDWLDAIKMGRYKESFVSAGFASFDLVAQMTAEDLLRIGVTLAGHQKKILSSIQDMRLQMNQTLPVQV
Procedure: EphB3 radiometric kinase activity assay. To study the EphB3 kinase activity, a radioactive filter binding assay using 33P ATP was performed as described at the […] International Centre for Kinase profiling. […] The mix was harvested onto P81 filter plates and counts were read on a Topcount NXT.

EphA4 = EphA4 (Homo sapiens, UniProt P54764); assay: Eph receptor kinase activity assay (radiometric), EphA4; details: for remaining activity at 0.01 µM: 10 nM compound, read-out: EphA4 % act 10 nM; for remaining activity at 0.03 µM: 30 nM compound, read-out: EphA4 % act 30 nM; for remaining activity at 0.1 µM: 100 nM compound, read-out: EphA4 % act 100 nM; for remaining activity at 0.3 µM: 300 nM compound, read-out: EphA4 % act 300 nM
[1] = Table 3, Example 13, read-out: EphB3 (nM) IC50
[2] = Table 2, Example 12, read-out: EphB3 (nM) IC50

Sequence of EphA4 (P54764 20-986): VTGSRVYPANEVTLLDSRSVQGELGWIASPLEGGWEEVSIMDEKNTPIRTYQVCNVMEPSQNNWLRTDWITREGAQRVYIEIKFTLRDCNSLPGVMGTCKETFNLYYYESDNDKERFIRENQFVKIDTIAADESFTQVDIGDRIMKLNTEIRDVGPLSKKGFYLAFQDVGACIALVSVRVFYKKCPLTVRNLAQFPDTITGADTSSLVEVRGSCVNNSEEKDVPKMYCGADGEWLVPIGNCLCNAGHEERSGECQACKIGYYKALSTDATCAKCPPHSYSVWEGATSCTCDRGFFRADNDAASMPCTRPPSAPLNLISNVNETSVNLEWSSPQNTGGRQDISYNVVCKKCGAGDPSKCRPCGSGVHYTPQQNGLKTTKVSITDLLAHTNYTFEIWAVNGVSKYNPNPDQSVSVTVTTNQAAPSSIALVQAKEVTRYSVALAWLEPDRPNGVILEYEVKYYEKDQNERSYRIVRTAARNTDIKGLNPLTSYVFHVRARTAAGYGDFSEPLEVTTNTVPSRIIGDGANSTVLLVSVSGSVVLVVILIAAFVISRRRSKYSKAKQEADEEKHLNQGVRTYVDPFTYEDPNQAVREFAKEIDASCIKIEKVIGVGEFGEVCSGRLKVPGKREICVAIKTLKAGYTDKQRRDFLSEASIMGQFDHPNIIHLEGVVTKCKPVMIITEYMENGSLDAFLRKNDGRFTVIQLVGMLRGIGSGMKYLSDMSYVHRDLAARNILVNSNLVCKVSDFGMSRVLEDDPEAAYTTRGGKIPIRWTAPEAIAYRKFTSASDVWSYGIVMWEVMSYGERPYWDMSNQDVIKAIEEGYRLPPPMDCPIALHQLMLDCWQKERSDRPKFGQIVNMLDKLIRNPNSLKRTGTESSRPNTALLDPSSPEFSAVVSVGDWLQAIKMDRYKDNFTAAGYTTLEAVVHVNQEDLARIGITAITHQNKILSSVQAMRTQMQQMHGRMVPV
Sequence of EphA2 (P29317 24-976): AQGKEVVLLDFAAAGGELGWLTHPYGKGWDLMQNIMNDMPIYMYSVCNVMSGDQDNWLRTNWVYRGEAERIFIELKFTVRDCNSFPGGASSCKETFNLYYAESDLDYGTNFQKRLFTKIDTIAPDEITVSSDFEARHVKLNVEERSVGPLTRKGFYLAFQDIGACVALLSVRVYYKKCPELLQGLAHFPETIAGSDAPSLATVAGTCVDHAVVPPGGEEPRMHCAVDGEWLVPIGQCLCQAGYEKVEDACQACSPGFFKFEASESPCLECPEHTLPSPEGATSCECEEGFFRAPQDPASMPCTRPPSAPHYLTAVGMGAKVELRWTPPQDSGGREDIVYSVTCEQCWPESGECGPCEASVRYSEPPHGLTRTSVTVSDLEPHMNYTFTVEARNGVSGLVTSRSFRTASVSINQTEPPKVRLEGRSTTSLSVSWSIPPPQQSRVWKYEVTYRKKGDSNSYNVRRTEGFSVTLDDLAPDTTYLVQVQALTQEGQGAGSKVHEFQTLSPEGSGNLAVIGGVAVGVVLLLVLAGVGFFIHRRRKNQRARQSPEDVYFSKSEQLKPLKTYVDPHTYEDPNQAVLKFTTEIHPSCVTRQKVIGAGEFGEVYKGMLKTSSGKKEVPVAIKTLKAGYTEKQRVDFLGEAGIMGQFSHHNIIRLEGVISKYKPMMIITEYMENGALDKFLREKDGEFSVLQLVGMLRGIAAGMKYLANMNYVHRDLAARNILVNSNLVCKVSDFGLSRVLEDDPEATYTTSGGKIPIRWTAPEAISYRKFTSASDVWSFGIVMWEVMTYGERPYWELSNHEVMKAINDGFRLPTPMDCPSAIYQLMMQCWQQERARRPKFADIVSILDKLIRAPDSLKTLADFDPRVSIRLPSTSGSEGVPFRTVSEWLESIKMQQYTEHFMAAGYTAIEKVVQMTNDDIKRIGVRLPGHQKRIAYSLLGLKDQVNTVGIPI

| SMILES | remaining activity at 0.01 µM (EphA2) [%] | remaining activity at 0.03 µM (EphA2) [%] | remaining activity at 0.1 µM (EphA2) [%] | remaining activity at 0.01 µM (EphB4) [%] | remaining activity at 0.03 µM (EphB4) [%] | remaining activity at 0.1 µM (EphB4) [%] | remaining activity at 0.01 µM (EphB3) [%] | remaining activity at 0.03 µM (EphB3) [%] | remaining activity at 0.1 µM (EphB3) [%] | remaining activity at 0.01 µM (EphA4) [%] | remaining activity at 0.03 µM (EphA4) [%] | remaining activity at 0.1 µM (EphA4) [%] | remaining activity at 0.3 µM (EphA2) [%] | remaining activity at 0.3 µM (EphB4) [%] | remaining activity at 0.3 µM (EphB3) [%] | remaining activity at 0.3 µM (EphA4) [%] | other results |
| --- | --- | --- | --- | --- | --- | --- | --- | --- | --- | --- | --- | --- | --- | --- | --- | --- | --- |
| COc1cccc(NC(=O)c2cnc3ccc(C4CCNCC4)cn23)c1Cl [compound 117, N-(2-Chloro-3-methoxyphenyl)-6-(piperidin-4-yl)imidazo[1,2-a]pyridine-3-carboxamide] | 95.8 | 83.8 | 80.8 | 104 | 95.6 | 86.7 | 110 | 110 | 102 | 74.7 | 75.9 | 89.8 | – | – | – | – | IC50 (EphA2; Table 3, Example 13): < 10 nM; IC50 (EphB4; Table 3, Example 13): < 10 nM; IC50 (EphB3; [1]): < 10 nM; IC50 (EphA4; Table 3, Example 13): < 10 nM |
| O=C(Nc1ccccc1Cl)c1cnc2ccc(-c3cccnc3)cn12 [compound 113, N-(2-Chlorophenyl)-6-(pyridin-3-yl)imidazo[1,2-a]pyridine-3-carboxamide] | 52 | – | 29 | 30 | – | 7 | 49 | – | 16 | 53 | – | 26 | 17 | 4 | 11 | 19 | – |
| NC(=O)c1cccc(-c2ccc3ncc(C(=O)Nc4ccccc4Cl)n3c2)c1 [compound 110, 6-(3-Carbamoylphenyl)-N-(2-chlorophenyl)imidazo[1,2-a]pyridine-3-carboxamide] | 71 | – | 46 | 75 | – | 48 | 58 | – | 39 | 65 | – | 36 | 21 | 3 | 7 | 12 | – |
| Cc1ccc(-c2ccc3ncc(C(=O)Nc4ccccc4Cl)n3c2)cc1 [compound 104, N-(2-Chlorophenyl)-6-(4-methylphenyl)imidazo[1,2-a]pyridine-3-carboxamide] | 78.1 | 86 | 55.9 | 93.1 | 95.5 | 98.4 | 110 | 60.5 | 55.9 | 83.8 | 62.8 | 57.8 | – | – | – | – | – |
| O=C(Nc1ccccc1Cl)c1cnc2ccc(-c3ccccn3)cn12 [compound 112, N-(2-chlorophenyl)-6-(pyridin-2-yl)imidazo[1,2-a]pyridine-3-carboxamide] | 53 | – | 33 | 37 | – | 7 | 50 | – | 14 | 50 | – | 25 | 14 | 2 | 7 | 12 | – |
| COc1ccc(Cl)c(NC(=O)c2cnc3ccc(C4CCNCC4)cn23)c1 [compound 118, N-(2-Chloro-5-methoxyphenyl)-6-(piperidin-4-yl)imidazo[1,2-a]pyridine-3-carboxamide] | 104 | 83.5 | 82.1 | 97.4 | 97.5 | 66.5 | 116 | 73.9 | 91.4 | 87 | 55.9 | 47.3 | – | – | – | – | IC50 (EphA2; Table 3, Example 13): 288 nM; IC50 (EphB4; Table 3, Example 13): 407 nM; IC50 (EphB3; [1]): 630 nM; IC50 (EphA4; Table 3, Example 13): 57 nM |
| Cc1ccccc1-c1ccc2ncc(C(=O)Nc3ccccc3Cl)n2c1 [compound 106, N-(2-Chlorophenyl)-6-(2-methylphenyl)imidazo[1,2-a]pyridine-3-carboxamide] | 110 | 78.9 | 72.7 | 98.9 | 106 | 110 | 132 | 93.8 | 63.5 | 83.8 | 58.3 | 55.1 | – | – | – | – | IC50 (EphA2; Table 2, Example 12): 245 nM; IC50 (EphB4; Table 2, Example 12): 675 nM; IC50 (EphB3; Example 14, read-out: IC50 (μM), EphB3 receptor kinase inhibitory activity): 130 nM; IC50 (EphB3; [2]): 182 nM; IC50 (EphA4; Table 2, Example 12): 110 nM |
| O=C(Nc1ccccc1Cl)c1cnc2ccc(-c3ccccc3O)cn12 [compound 116, N-(2-chlorophenyl)-6-(2-hydroxyphenyl)imidazo[1,2-a]pyridine-3-carboxamide] | 76.4 | 84 | 61.3 | 96.5 | 103 | 103 | 112 | 65.5 | 42.9 | 99.5 | 77 | 82.4 | – | – | – | – | IC50 (EphA2; Table 2, Example 12): 345 nM; IC50 (EphB4; Table 2, Example 12): 687 nM; IC50 (EphB3; [2]): 60 nM; IC50 (EphA4; Table 2, Example 12): 248 nM |
| O=C(Nc1ccccc1Cl)c1cnc2ccc(-c3ncccn3)cn12 [compound 115, N-(2-Chlorophenyl)-6-(pyrimidin-2-yl)imidazo[1,2-a]pyridine-3-carboxamide] | 115 | – | 67 | 89 | – | 32 | 108 | – | 55 | 104 | – | 54 | 40 | 9 | 28 | 34 | – |
